# According to US9487483B2, “Complement pathway modulators and uses thereof” (priority 2012, dated 2016):
# Target: Recombinant human factor D (Homo sapiens (Human), UniProt P00746)
# Test: biochemical
# Assay type: biochemical
# Conditions: Factor D inhibition data using Method 1; substrate Z-Lys-thiobenzyl, fluorescence readout; read-out: IC50
# Method: Human Complement Factor D Assay: Method 1
# Recombinant human factor D (expressed in E. coli and purified using standard methods) at 10 nM concentration is incubated with test compound at various concentrations for 1 hour at room temperature in 0.1 M Hepes buffer, pH 7.5, containing 1 mM MgCl2, 1 M NaCl and 0.05% CHAPS. […] IC50 values are calculated from percentage of inhibition of complement factor D-activity as a function of test compound concentration.
# Sequence of Recombinant human factor D (P00746 26-253): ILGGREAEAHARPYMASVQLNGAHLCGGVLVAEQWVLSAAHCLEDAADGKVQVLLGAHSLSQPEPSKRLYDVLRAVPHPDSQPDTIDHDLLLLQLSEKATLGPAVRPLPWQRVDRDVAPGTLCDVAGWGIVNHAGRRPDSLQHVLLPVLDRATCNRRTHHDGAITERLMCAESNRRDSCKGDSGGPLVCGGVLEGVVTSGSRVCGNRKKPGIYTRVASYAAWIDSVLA
row,Structure (SMILES),IC50 [nM]
1,"CC(=O)c1nn(CC(=O)N2[C@H](C(=O)N[C@@H]3CCCC(C)(C)C3)C[C@@]3(CO)C[C@@H]23)c2ncccc12 [Example 115, (1R,3S,5S)-2-[2-(3-Acetyl-pyrazolo[3,4-b]pyridin-1-yl)-acetyl]-5-hydroxymethyl-2-aza-bicyclo[3.1.0]hexane-3-carboxylic acid ((R)-3,3-dimethyl-cyclohexyl)-amide]",22
2,"CC(=O)c1nn(CC(=O)N2[C@H](C(=O)N[C@H]3CCCC(C)(C)C3)C[C@@]3(CO)C[C@@H]23)c2ncccc12 [Example 116, (1R,3S,5S)-2-[2-(3-Acetyl-pyrazolo[3,4-b]pyridin-1-yl)-acetyl]-5-hydroxymethyl-2-aza-bicyclo[3.1.0]hexane-3-carboxylic acid ((S)-3,3-dimethyl-cyclohexyl)-amide]",1600
3,"CC1(O)CCCC(NC(=O)[C@@H]2C[C@H]3C[C@H]3N2C(=O)Cn2nc(C(N)=O)c3ccccc32)C1 (stereo partly drawn) [Example 123, 1-(2-((1R,3S,5R)-3-(3-hydroxy-3-methylcyclohexylcarbamoyl)-2-azabicyclo[3.1.0]hexan-2-yl)-2-oxoethyl)-1H-indazole-3-carboxamide]",920
4,"C[C@]1(CO)CCC[C@@H](NC(=O)[C@@H]2C[C@H]3C[C@H]3N2C(=O)Cn2nc(C(N)=O)c3ccccc32)C1 [Example 127, 1-(2-((1R,3S,5R)-3-(((1R,3S)-3-(hydroxymethyl)-3-methylcyclohexyl)carbamoyl)-2-azabicyclo[3.1.0]hexan-2-yl)-2-oxoethyl)-1H-indazole-3-carboxamide]",80
5,"C[C@@]1(CO)CCC[C@H](NC(=O)[C@@H]2C[C@H]3C[C@H]3N2C(=O)Cn2nc(C(N)=O)c3ccccc32)C1 [Example 128, 1-(2-((1R,3S,5R)-3-(((1S,3R)-3-(hydroxymethyl)-3-methylcyclohexyl)carbamoyl)-2-azabicyclo[3.1.0]hexan-2-yl)-2-oxoethyl)-1H-indazole-3-carboxamide]",2210

# Same assay, conditions: read-out: IC50
row,Structure (SMILES),IC50 [nM]
1,"CC(=O)c1nn(CC(=O)N2[C@H](C(=O)N[C@@H]3CCCC(C)(C)C3)C[C@@]3(CO)C[C@@H]23)c2cnccc12 [Example 121, (1R,3S,5S)-2-[2-(3-Acetyl-pyrazolo[3,4-c]pyridin-1-yl)-acetyl]-5-hydroxymethyl-2-aza-bicyclo[3.1.0]hexane-3-carboxylic acid ((R)-3,3-dimethyl-cyclohexyl)-amide]",15
2,"CC(=O)c1nn(CC(=O)N2[C@H](C(=O)N[C@H]3CCCC(C)(C)C3)C[C@@]3(CO)C[C@@H]23)c2cnccc12 [Example 122, (1R,3S,5S)-2-[2-(3-Acetyl-pyrazolo[3,4-c]pyridin-1-yl)-acetyl]-5-hydroxymethyl-2-aza-bicyclo[3.1.0]hexane-3-carboxylic acid ((S)-3,3-dimethyl-cyclohexyl)-amide]",2200
3,"CC(=O)c1nn(CC(=O)N2[C@@H]3C[C@@H]3C[C@H]2C(=O)N[C@H]2C[C@H](O)CC(C)(C)C2)c2ccccc12 [Example 124, (1R,3S,5R)-2-(2-(3-acetyl-1H-indazol-1-yl)acetyl)-N-((1R,5R)-5-hydroxy-3,3-dimethylcyclohexyl)-2-azabicyclo[3.1.0]hexane-3-carboxamide]",10
4,"CC(=O)c1nn(CC(=O)N2[C@@H]3C[C@@H]3C[C@H]2C(=O)N[C@@H]2C[C@@H](O)CC(C)(C)C2)c2ccccc12 [Example 125, (1R,3S,5R)-2-(2-(3-acetyl-1H-indazol-1-yl)acetyl)-N-((1S,5S)-5-hydroxy-3,3-dimethylcyclohexyl)-2-azabicyclo[3.1.0]hexane-3-carboxamide]",1100
